Values quoted from earlier work as cited in patent publication US7151091B2, “Compositions and methods for preventing infection” (The Johns Hopkins University, priority 2002, dated 2006).

Columns and labels:
[1] = concentrations ranging from 5–100 mM
[2] = system: human immunodeficiency virus (HIV); conditions: given to HIV-infected pregnant women before and during childbirth and to their infants after childbirth

Compound | removal of membrane cholesterol [1] | reduction of HIV transmission [2]
CC(O)COC[C@H]1O[C@@H]2O[C@H]3[C@H](O)[C@@H](O)[C@@H](O[C@H]4[C@H](O)[C@@H](O)[C@@H](O[C@H]5[C@H](O)[C@@H](O)[C@@H](O[C@H]6[C@H](O)[C@@H](O)[C@@H](O[C@H]7[C@H](O)[C@@H](O)[C@@H](O[C@H]8[C@H](O)[C@@H](O)[C@@H](O[C@H]1[C@H](O)[C@H]2O)O[C@@H]8COCC(C)O)O[C@@H]7COCC(C)O)O[C@@H]6COCC(C)O)O[C@@H]5COCC(C)O)O[C@@H]4COCC(C)O)O[C@@H]3COCC(C)O (stereo partly drawn) [2-OH-propyl-beta-cyclodextrin] | removes membrane cholesterol within minutes | 
Cc1cn([C@H]2C[C@H](N=[N+]=[N-])[C@@H](CO)O2)c(=O)[nH]c1=O [zidovudine] |  | two-thirds
